Structures can show the parent of a compound that is named as a salt.
molecular target: recombinant human AMPK complex 1 (containing α1β1γ1) (Homo sapiens, UniProt Q13131+Q9Y478); assay: […] (in vitro AMPK activation assay); type: biochemical; conditions: read-out: % Maximum AMP Activation of human AMPK Complex 1, recombinant human AMPK complex 1 (α1β1γ1); basal activity subtracted
Sequence (Q13131 whole entry): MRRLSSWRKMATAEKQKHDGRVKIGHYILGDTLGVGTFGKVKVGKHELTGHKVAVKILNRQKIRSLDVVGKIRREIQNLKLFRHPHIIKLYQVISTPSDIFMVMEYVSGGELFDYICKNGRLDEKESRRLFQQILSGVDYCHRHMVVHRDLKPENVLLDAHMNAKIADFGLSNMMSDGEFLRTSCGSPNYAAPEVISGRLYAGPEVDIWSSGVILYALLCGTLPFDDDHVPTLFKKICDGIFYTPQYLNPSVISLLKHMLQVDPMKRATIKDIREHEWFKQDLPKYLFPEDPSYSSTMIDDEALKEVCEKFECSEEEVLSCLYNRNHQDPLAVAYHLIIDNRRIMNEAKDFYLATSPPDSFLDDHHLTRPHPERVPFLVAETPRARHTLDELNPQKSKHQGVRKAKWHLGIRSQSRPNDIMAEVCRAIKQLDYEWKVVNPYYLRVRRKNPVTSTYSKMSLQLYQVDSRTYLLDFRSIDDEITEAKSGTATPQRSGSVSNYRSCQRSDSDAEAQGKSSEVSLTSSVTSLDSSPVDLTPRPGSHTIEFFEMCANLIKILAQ
Sequence (Q9Y478 whole entry): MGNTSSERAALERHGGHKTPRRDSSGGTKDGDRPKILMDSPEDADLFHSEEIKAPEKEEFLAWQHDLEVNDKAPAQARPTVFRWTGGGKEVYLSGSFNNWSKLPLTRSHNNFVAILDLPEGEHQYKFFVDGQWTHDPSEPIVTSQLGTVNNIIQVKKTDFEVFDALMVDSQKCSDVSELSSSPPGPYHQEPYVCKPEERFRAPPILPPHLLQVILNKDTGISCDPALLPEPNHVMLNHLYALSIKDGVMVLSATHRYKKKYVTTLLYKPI
Sequence (P54619 whole entry partner): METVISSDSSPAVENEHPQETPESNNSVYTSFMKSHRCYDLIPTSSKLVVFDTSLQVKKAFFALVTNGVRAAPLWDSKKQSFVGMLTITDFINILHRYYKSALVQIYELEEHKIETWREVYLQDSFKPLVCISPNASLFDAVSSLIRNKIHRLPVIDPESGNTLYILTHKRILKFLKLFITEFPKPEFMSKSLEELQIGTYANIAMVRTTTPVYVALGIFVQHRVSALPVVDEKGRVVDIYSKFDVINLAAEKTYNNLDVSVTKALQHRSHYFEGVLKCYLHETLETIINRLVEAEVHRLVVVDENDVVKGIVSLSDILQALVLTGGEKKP

| SMILES | Emax |
| --- | --- |
| COc1cccc(-c2cc3nc(Oc4ccc(C)c(C(=O)O)c4)[nH]c3cc2Cl)c1 [Example 338, Ammonium 5-{[6-chloro-5-(3-methoxyphenyl)-1H-benzimidazol-2-yl]oxy}-2-methylbenzoate] | > 80% |
| COc1ccc(-c2cc3nc(Oc4ccc(C)c(C(=O)O)c4)[nH]c3cc2Cl)cc1 [Example 345, Ammonium 5-{[6-chloro-5-(4-methoxyphenyl)-1H-benzimidazol-2-yl]oxy}-2-methylbenzoate] | > 80% |

same assay, conditions: recombinant human AMPK complex 1 (α1β1γ1); basal activity subtracted; read-out: % Maximum AMP Activation of human AMPK Complex 1

| SMILES | Emax |
| --- | --- |
| Cc1cc2cc(-c3cc4nc(Oc5ccc(C)c(C(=O)O)c5)[nH]c4cc3Cl)ccc2[nH]1 [Example 261, 5-{[6-chloro-5-(2-methyl-1H-indol-5-yl)-1H-benzimidazol-2-yl]oxy}-2-methylbenzoic acid] | > 80% |
| Cc1ccc(Oc2nc3cc(-c4cnc(N5CCCC5)nc4)c(Cl)cc3[nH]2)cc1C(=O)O [Example 257, 2-(3-carboxy-4-methylphenoxy)-6-chloro-5-(2-pyrrolidin-1-yl-pyrimidin-5-yl)-1H-3,1-benzimidazol-3-ium trifluoroacetate] | > 80% |
| Cc1ccc(Oc2nc3cc(-c4ccc(N5CCOCC5)cc4)c(F)cc3[nH]2)cc1C(=O)O [Example 247, 5-[6-Fluoro-5-(4-morpholin-4-yl-phenyl)-1H-benzoimidazol-2-yloxy]-2-methyl-benzoic acid] | > 80% |
| COC(=O)C1(c2ccc(Oc3nc4cc(-c5ccc(-c6ccccc6)cc5)c(Cl)cc4[nH]3)cc2)CC1 [Example 6, 1-[4-(5-Biphenyl-4-yl-6-chloro-1H-benzoimidazol-2-yloxy)-phenyl]-cyclopropanecarboxylic acid methyl ester] | > 80% |
| Cc1ccc(Oc2nc3cc(-c4ccc(C5(O)CC5)cc4)c(Cl)cc3[nH]2)cc1C(=O)O [Example 264, 5-{6-Chloro-5-[4-(1-hydroxy-cyclopropyl)-phenyl]-1H-benzoimidazol-2-yloxy}-2-methyl-benzoic acid] | > 80% |
| Cc1ccc(Oc2nc3cc(-c4cccc(-c5ccccc5)c4)c(Cl)cc3[nH]2)cc1C(=O)O [Example 302, 5-(5-Biphenyl-3-yl-6-chloro-1H-benzoimidazol-2-yloxy)-2-methyl-benzoic acid] | > 80% |
| Cc1ccc(Oc2nc3cc(-c4ccc(-c5nnn[nH]5)cc4)c(Cl)cc3[nH]2)cc1C(=O)O [Example 176, 5-{6-Chloro-5-[4-(1H-tetrazol-5-yl)-phenyl]-1H-benzoimidazol-2-yloxy}-2-methyl-benzoic acid] | > 80% |
| Cc1ccc(Oc2nc3cc(-c4ccc5c(c4)CNC5)c(Cl)cc3[nH]2)cc1C(=O)O [Example 301, 5-[2-(3-carboxy-4-methylphenoxy)-6-chloro-1H-benzimidazol-5-yl]-2,3-dihydro-1H-isoindolium trifluoroacetate] | > 80% |
| Cc1ccc(Oc2nc3cc(-c4ccc(C(C)C)cc4)c(Cl)cc3[nH]2)cc1C(=O)O [Example 352, 5-[6-Chloro-5-(4-isopropyl-phenyl)-1H-benzoimidazol-2-yloxy]-2-methyl-benzoic acid] | > 80% |
| Cc1ccc(Oc2nc3cc(C#Cc4cncn4C)c(Cl)cc3[nH]2)cc1C(=O)O [Example 134, 5-[6-Chloro-5-(3-methyl-3H-imidazol-4-ylethynyl)-1H-benzoimidazol-2-yloxy]-2-methyl-benzoic acid] | > 80% |
| Cc1ccc(Oc2nc3cc(C#Cc4ccc(C(=O)O)cc4)c(Cl)cc3[nH]2)cc1C(=O)O [Example 181, 5-[5-(4-Carboxy-phenylethynyl)-6-chloro-1H-benzoimidazol-2-yloxy]-2-methyl-benzoic acid] | > 80% |
| COC(=O)c1ccc(Oc2nc3cc(-c4ccc(-c5ccccc5)cc4)c(Cl)cc3[nH]2)cc1C(=O)OC [Example 10, 4-(5-Biphenyl-4-yl-6-chloro-1H-benzoimidazol-2-yloxy)-phthalic acid dimethyl ester] | > 80% |
| O=C(O)Cc1cccc(Oc2nc3cc(C#Cc4ccccc4)c(Cl)cc3[nH]2)c1 [Example 22, [3-(6-Chloro-5-phenylethynyl-1H-benzoimidazol-2-yloxy)-phenyl]-acetic acid] | > 80% |
| O=C(O)c1ccc(Oc2nc3cc(-c4ccc(-c5ccccc5)cc4)c(Cl)cc3[nH]2)cc1Cl [Example 39, 4-(5-Biphenyl-4-yl-6-chloro-1H-benzoimidazol-2-yloxy)-2-chloro-benzoic acid] | > 80% |
| Cc1ccc(Oc2nc3cc(-c4nc5ccccc5s4)c(Cl)cc3[nH]2)cc1C(=O)O [Example 354, 5-(5-Benzothiazol-2-yl-6-chloro-1H-benzoimidazol-2-yloxy)-2-methyl-benzoic acid] | > 80% |
| Cc1ccc(Oc2nc3cc(-c4ccc(-c5ccccc5)s4)c(Cl)cc3[nH]2)cc1C(=O)O [Example 359, 5-{6-Chloro-5-(5-phenyl-thiophen-2-yl)-1H-benzoimidazol-2-yloxy}-2-methyl-benzoic acid] | > 80% |
| Cc1ccc(Oc2nc3cc(C#CC4CCNC4)c(Cl)cc3[nH]2)cc1C(=O)O (stereo not shown) [Example 138, 5-(6-Chloro-5-pyrrolidin-3-ylethynyl-1H-benzoimidazol-2-yloxy)-2-methyl-benzoic acid] | > 80% |
| CC(=O)c1ccc(-c2cc3nc(Oc4ccc(C)c(C(=O)O)c4)[nH]c3cc2Cl)cc1 [Example 157, 5-{5-(4-Acetyl-phenyl)-6-chloro-1H-benzoimidazol-2-yloxy]-2-methyl-benzoic acid] | > 80% |

| SMILES | Emax |
| --- | --- |
| Cc1ccc(Oc2nc3cc(-c4ccc5c(c4)CCNC5=O)c(Cl)cc3[nH]2)cc1C(=O)O [Example 237, 5-[6-Chloro-5-(1-oxo-1,2,3,4-tetrahydro-isoquinolin-6-yl)-1H-benzoimidazol-2-yloxy]-2-methyl-benzoic acid] | > 80% |
| COC(=O)c1cc(Oc2nc3cc(C#Cc4ccccc4C)c(Cl)cc3[nH]2)ccc1C [Example 99, 5-(6-Chloro-5-o-tolylethynyl-1H-benzoimidazol-2-yloxy)-2-methyl-benzoic acid methyl ester] | > 80% |
| Cc1ccc(Oc2nc3cc(C#Cc4cccc(F)c4)c(Cl)cc3[nH]2)cc1C(=O)O [Example 111, 5-[6-Chloro-5-(3-fluoro-phenylethynyl)-1H-benzoimidazol-2-yloxy]-2-methyl-benzoic acid] | > 80% |
| CCN1CCc2cc(-c3cc4nc(Oc5ccc(C)c(C(=O)O)c5)[nH]c4cc3Cl)ccc21 [Example 276, 5-[6-Chloro-5-(1-ethyl-2,3-dihydro-1H-indol-5-yl)-1H-benzoimidazol-2-yloxy]-2-methyl-benzoic acid] | > 80% |
| Cc1ccc(Oc2nc3cc(-c4ccc5c(c4)CC(=O)N5C)c(Cl)cc3[nH]2)cc1C(=O)O [Example 304, 5-[6-Chloro-5-(1-methyl-2-oxo-2,3-dihydro-1H-indol-5-yl)-1H-benzoimidazol-2-yloxy]-2-methyl-benzoic acid] | > 80% |
| O=C(O)c1cccc(Sc2nc3cc(-c4cccs4)c(Cl)cc3[nH]2)c1 [Example 65, 3-{[6-chloro-5-(2-thienyl)-1H-benzimidazol-2-yl]thio}benzoic acid] | > 80% |
| Cc1ccc(Oc2nc3cc(C#CC(C)(C)O)c(Cl)cc3[nH]2)cc1C(=O)O [Example 154, 5-[6-Chloro-5-(3-hydroxy-3-methyl-but-1-ynyl)-1H-benzoimidazol-2-yloxy]-2-methyl-benzoic acid] | > 80% |
| Cc1ccc(Oc2nc3cc(-c4cccc5c4CCN5C(C)C)c(Cl)cc3[nH]2)cc1C(=O)O [Example 324, 5-{[6-chloro-5-(1-isopropyl-2,3-dihydro-1H-indol-4-yl)-1H-benzimidazol-2-yl]oxy}-2-methylbenzoic acid] | > 80% |
| Cc1ccc(Oc2nc3cc(-c4ccc(-c5ccc(O)nc5)cc4)c(Cl)cc3[nH]2)cc1C(=O)O [Example 188, 5-({6-chloro-5-[4-(6-hydroxypyridin-3-yl)phenyl]-1H-benzimidazol-2-yl}oxy)-2-methylbenzoic acid] | > 80% |
| COC(=O)c1cc(Oc2nc3cc(-c4ccc(-c5ccccc5C)cc4)c(Cl)cc3[nH]2)ccc1C [Example 198, Methyl 5-{[6-chloro-5-(2′-methylbiphenyl-4-yl)-1H-benzimidazol-2-yl]oxy}-2-methylbenzoate] | > 80% |
| NS(=O)(=O)c1cccc(Oc2nc3cc(-c4ccc(-c5ccccc5)cc4)c(Cl)cc3[nH]2)c1 [Example 220, 3-(5-Biphenyl-4-yl-6-chloro-1H-benzoimidazol-2-yloxy)-benzenesulfonamide] | > 80% |
| Cc1ccc(Oc2nc3cc(C#Cc4ccc(-c5nc6ccccc6o5)cc4)c(Cl)cc3[nH]2)cc1C(=O)O [Example 81, 5-[5-(4-Benzooxazol-2-yl-phenylethynyl)-6-chloro-1H-benzoimidazol-2-yloxy]-2-methyl-benzoic acid] | > 80% |
| Cc1ccc(Oc2nc3cc(-c4ccc5c(c4)CN(C)C5)c(Cl)cc3[nH]2)cc1C(=O)O [Example 300, 5-[2-(3-carboxy-4-methylphenoxy)-6-chloro-1H-benzimidazol-5-yl]-2-methyl-2,3-dihydro-1H-isoindolium trifluoroacetate] | > 80% |
| COC(=O)c1cc(Oc2nc3cc(C#Cc4ccc(OC)cc4)c(Cl)cc3[nH]2)ccc1C [Example 122, 5-[6-Chloro-5-(4-methoxy-phenylethynyl)-1H-benzoimidazol-2-yloxy]-2-methyl-benzoic acid methyl ester] | > 80% |
| Cc1ccc(Oc2nc3cc(-c4ccc(-c5ccccc5N)cc4)c(Cl)cc3[nH]2)cc1C(=O)O [Example 205, 5-{[5-(2′-aminobiphenyl-4-yl)-6-chloro-1H-benzimidazol-2-yl]oxy}-2-methylbenzoic acid] | > 80% |
| COC(=O)c1cc(Oc2nc3cc(C#Cc4ccccc4)c(Cl)cc3[nH]2)cc(C(=O)OC)c1 [Example 49, 5-(6-Chloro-5-phenylethynyl-1H-benzoimidazol-2-yloxy)-isophthalic acid dimethyl ester] | > 80% |
| Cc1ccc(Oc2nc3cc(-c4ccc(-c5cccc(Cl)c5)cc4)c(Cl)cc3[nH]2)cc1C(=O)O [Example 186, 5-{[6-chloro-5-(3′-chlorobiphenyl-4-yl)-1H-benzimidazol-2-yl]oxy}-2-methylbenzoic acid] | > 80% |

— patent publication US8394969B2, “Cyclic benzimidazole derivatives useful as anti-diabetic agents” (Merck Sharp & Dohme Corp., priority 2008, dated 2013)
